Literature values as cited in PMC6462165 (International Journal of Nanomedicine, 2019).

Test system: endothelial cell proliferation
Conditions: inhibition of endothelial cell proliferation; cited from earlier work

For IVRRADRAAVP [ES2], the “activity relative to the ES sequence” value is given as “about three times more active than the ES sequence”.
